{"source": "patent US10336732B2", "about": "“1-heterocyclyl isochromanyl compounds and analogs for treating CNS disorders” (Sunovion Pharmaceuticals Inc., priority 2015, dated 2019)", "tested_on": "mice", "assay": "Neuropharmacological assay (SmartCube), behavioral signature of compound-treated mice", "type": "in vivo", "conditions": "i.p. 15 min before behavioral test, most efficacious dose(s) of 3 doses", "summary_of_the_method": "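Read-out is an automated video-based behavioral signature, scored as per-class probabilities (e.g., anxiolytic, antidepressant) against reference compounds. Dosing was i.p. at three doses, 15 min pre-test, in NMP, polyethylene glycol and propylene glycol. Values shown are from the most efficacious dose(s).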", "data": [{"smiles": "Fc1ccc2c(c1)CCO[C@@H]2[C@@H]1COCCN1", "note": "[Compound I-77, (S)-3-((S)-6-fluoroisochroman-1-yl)morpholine]", "values": [{"measurement": "AD: ADHD (probability that behavioral signature matches class)", "value": "+ (LOQ ≤ + <5%)"}, {"measurement": "AG: analgesic (probability that behavioral signature matches class)", "value": "+ (LOQ ≤ + <5%)"}, {"measurement": "AX: anxiolytic (probability that behavioral signature matches class)", "value": "++ (5% ≤ ++ <25%)"}, {"measurement": "CE: cognitive enhancer (probability that behavioral signature matches class)", "value": "+ (LOQ ≤ + <5%)"}, {"measurement": "DP: anti-depressant (probability that behavioral signature matches class)", "value": "+ (LOQ ≤ + <5%)"}, {"measurement": "HA: hallucinogen (probability that behavioral signature matches class)", "value": "+ (LOQ ≤ + <5%)"}, {"measurement": "MS: mood stabilizer (probability that behavioral signature matches class)", "value": "+ (LOQ ≤ + <5%)"}, {"measurement": "PS: anti-psychotic (probability that behavioral signature matches class)", "value": "+ (LOQ ≤ + <5%)"}, {"measurement": "SD: sedative hypnotic (probability that behavioral signature matches class)", "value": "+ (LOQ ≤ + <5%)"}, {"measurement": "UN: uncharacterized CNS activity (probability that behavioral signature matches class)", "value": "+ (LOQ ≤ + <5%)"}, {"measurement": "XG: anxiogenic (probability that behavioral signature matches class)", "value": "+ (LOQ ≤ + <5%)"}]}, {"smiles": "Fc1ccc2c(c1)CCO[C@H]2[C@@H]1CCCCN1", "note": "[Compound I-74, (S)-2-((R)-6-fluoroisochroman-1-yl)piperidine]", "values": [{"measurement": "AD: ADHD (probability that behavioral signature matches class)", "value": "+ (LOQ ≤ + <5%)"}, {"measurement": "AG: analgesic (probability that behavioral signature matches class)", "value": "++ (5% ≤ ++ <25%)"}, {"measurement": "AX: anxiolytic (probability that behavioral signature matches class)", "value": "++ (5% ≤ ++ <25%)"}, {"measurement": "CE: cognitive enhancer (probability that behavioral signature matches class)", "value": "++ (5% ≤ ++ <25%)"}, {"measurement": "DP: anti-depressant (probability that behavioral signature matches class)", "value": "++ (5% ≤ ++ <25%)"}, {"measurement": "HA: hallucinogen (probability that behavioral signature matches class)", "value": "+ (LOQ ≤ + <5%)"}, {"measurement": "MS: mood stabilizer (probability that behavioral signature matches class)", "value": "+ (LOQ ≤ + <5%)"}, {"measurement": "PS: anti-psychotic (probability that behavioral signature matches class)", "value": "+++ (25% ≤ +++ <50%)"}, {"measurement": "SD: sedative hypnotic (probability that behavioral signature matches class)", "value": "++ (5% ≤ ++ <25%)"}, {"measurement": "UN: uncharacterized CNS activity (probability that behavioral signature matches class)", "value": "+ (LOQ ≤ + <5%)"}, {"measurement": "XG: anxiogenic (probability that behavioral signature matches class)", "value": "+ (LOQ ≤ + <5%)"}]}, {"smiles": "Fc1ccc2c(c1)CCO[C@@H]2[C@H]1CCCN1", "note": "[Compound I-11, (R)-2-((S)-6-fluoroisochroman-1-yl)pyrrolidine]", "values": [{"measurement": "AD: ADHD (probability that behavioral signature matches class)", "value": "+ (LOQ ≤ + <5%)"}, {"measurement": "AG: analgesic (probability that behavioral signature matches class)", "value": "++ (5% ≤ ++ <25%)"}, {"measurement": "AX: anxiolytic (probability that behavioral signature matches class)", "value": "++ (5% ≤ ++ <25%)"}, {"measurement": "CE: cognitive enhancer (probability that behavioral signature matches class)", "value": "++ (5% ≤ ++ <25%)"}, {"measurement": "DP: anti-depressant (probability that behavioral signature matches class)", "value": "++ (5% ≤ ++ <25%)"}, {"measurement": "HA: hallucinogen (probability that behavioral signature matches class)", "value": "+ (LOQ ≤ + <5%)"}, {"measurement": "MS: mood stabilizer (probability that behavioral signature matches class)", "value": "+ (LOQ ≤ + <5%)"}, {"measurement": "PS: anti-psychotic (probability that behavioral signature matches class)", "value": "+++ (25% ≤ +++ <50%)"}, {"measurement": "SD: sedative hypnotic (probability that behavioral signature matches class)", "value": "+ (LOQ ≤ + <5%)"}, {"measurement": "UN: uncharacterized CNS activity (probability that behavioral signature matches class)", "value": "++ (5% ≤ ++ <25%)"}, {"measurement": "XG: anxiogenic (probability that behavioral signature matches class)", "value": "+ (LOQ ≤ + <5%)"}]}]}
